According to patent US20260240968A1, “METHODS AND MODIFICATIONS FOR REDUCING INNATE IMMUNE RESPONSES TO RNA” (The Board of Trustees of the Leland Stanford Junior …, priority 2023, published 2026):

Tests used:
HEK293 cells [1] = experiment: Spontaneous restoration of translation of cloaked GFP-mRNA (green fluorescence) in HEK293 cells; settings: normal cells (HEK293)
From the text: (§2) Thus, we investigated whether adducts by N,N-dimethylglycine acylimidazole can spontaneously release within the cells. To explored this, we employed cloaked mRNAs encoding a green fluorescence protein (GFP) (FIG. 6).
We screened these acylimidazole reagents for spontaneous restoration of mRNA translation in HEK293 cells by transfection with d2GFP-mRNA aliquots that were acylated with these acylimidazole reagents at various levels of 2′-modification. We monitored the green fluorescence signal in HEK293 cells over three days.

SW480 cells = settings: cancerous cells (SW480); cloaked mRNA
From the text: as §2

HEK293 cells [2] = experiment: Luminex human 48-plex analysis of cytokines and immune activation markers released from HEK293 cells lipofected with eGFP-mRNA with or without cloaking; format: cell-based
Experimental: As an initial assessment of how cloaking affects the innate immune responses of mRNA, we measured the release of cytokines and immune activation markers from HEK293 cells that were lipofected by eGFP-mRNA with or without cloaking. HEK293 cells were transfected with 2 μg of mRNA with lipofectamine MessengerMax. […] In comparison. […] The translation of eGFP-mRNA was insignificant at this time (6 hours post-transfection), so the release of these immunomodulatory cytokines/chemokines is largely due to cells sensing the mRNA.
We further evaluated the effect of 2′-acylation on long-term immune response with Luminex human 48-plex assays in HEK293 cells that were transfected with modified eGFP-mRNA (FIG. 3 and FIG. 4).
We next investigated whether the chemical structure of acylating reagents may differentially modulate certain innate immune response pathways. […] Because the maximum level of cloaking varied among these reagents, we proceeded to equimolarly cloak at ~50% of unpaired accessible 2′-hydroxyls of eGFP-mRNA with a similar level of modification. We measured the release of cytokines and immune activation markers from HEK293 cells that were lipofected by modified eGFP-mRNA with or without cloaking. HEK293 cells were transfected with 2 μg of mRNA aliquots with lipofectamine MessengerMax. […] Thus, acylating reagents with diverse chemical structures can differentially modulate certain innate immune-responsive pathways.

ISG15 = experiment: RT-qPCR of ISG15 mRNA expression (Type I innate immune response via the RIG-1 pathway) in HEK293 cells lipofected with eGFP-mRNA; format: cell-based, human; settings: HEK293 lipofected by eGFP-mRNA with or without cloaking by DMG-Im
From the text: (§1) Transfection of in vitro transcribed RNA can trigger a potent Type I innate immune response in HEK293 cells (PMID: 30011268). Next, we investigated whether cloaking may modulate such response in HEK293 cells. To do this, HEK293 cells were lipofected by eGFP-mRNA with or without cloaking by DMG-Im. We measured the mRNA expression level of ISG15, an activation marker downstream of Type I innate immune response via the RIG-1 pathway.
as §1, with “DMG-lm.” for “DMG-Im.”

[3] = long-term immune response, HEK293 transfected with modified eGFP-mRNA

From the text for HeLa cells: as §2

Question: Which “extension of the translational lifespan of mRNA encoding destabilized green fluorescent protein d2GFP” value (HeLa cells; HeLa cells, d2GFP-mRNA cloaked with DMG-Im) does the source give for `CN(C)CC(=O)n1ccnc1` [DMG-Im, N,N-dimethylglycine acylimidazole] here?
Answer: The value was 31%.

Question: What about the “translation of GFP-mRNA with N,N-dimethylglycine adducts” value (“translation of GFP-mRNA” below) (HeLa cells; cancerous cells (HeLa), cloaked mRNA) of the same molecule?
Answer: The value was “spontaneously restored”.

Question: What about the “translation of GFP-mRNA” value (HEK293 cells [1]) of the same molecule?
Answer: Its value is “spontaneously restored”.

Question: What about the “translation of GFP-mRNA” value (SW480 cells) of the same molecule?
Answer: Its value is “spontaneously restored”.

Question: And the “expression of some proinflammatory cytokines and immune activation markers over time” value (HEK293 cells [2]; FIGS. 3A-3B, cloaking by DMG-Im)?
Answer: The value was “potently modulates”.

Question: And the “release of proinflammatory chemokines and cytokines, including VEGF, RANTES/CCL5, PDGFAA, and IL8” value (HEK293 cells [2]; HEK293 transfected with 2 μg of eGFP-mRNA, lipofectamine MessengerMax, six hours post-transfection)?
Answer: The value was “potently suppressed”.

Question: And the “expression profiles of immune response mediators including type I interferon, CCL5, IL-8, IL-3, VEGF” value (HEK293 cells [2]; RNA cloaked with the R group, FIGS. 9 and 10)?
Answer: The value was “distinct expression profiles”.

Question: And the “expression of many mRNA-stimulated cytokines” value (HEK293 cells [2]; cloaked vs unmodified eGFP-mRNA, six hours post-transfection)?
Answer: Its value is “not significantly modulated”.

Question: And the “reduction of the release of proinflammatory cytokines and activation (VEGF, RANTES/CCL5, PDGFAA, IL8)” value (HEK293 cells [2]; eGFP-mRNA with intermediate cloaking (~50% of unpaired 2′-hydroxyls) vs unmodified, 2 μg, six hours post-transfection)?
Answer: Its value is ≤ 90%.

Question: What about the “release of Granulocyte-macrophage colony-stimulating factor (GMCSF) over time” value (HEK293 cells [2]; [3]) of the same molecule?
Answer: Its value is “increasingly suppressed overtime”.

Question: What about the “release of proinflammatory Chemokine ligand 5 (CCL5) over time” value (HEK293 cells [2]; [3]) of the same molecule?
Answer: The value was “increasingly suppressed overtime”.

Question: And the “secretion of Vascular endothelial growth factor (VEGF) over time” value (HEK293 cells [2]; [3])?
Answer: Its value is “increasingly less suppressed over time”.

Question: What about the “mRNA expression level of ISG15” value (ISG15) of the same molecule?
Answer: The value was “almost fully suppressed”.
